Assay results as given in the supplement of paper PMC10307832.

Key:
Assay in all cases: relative viability (nuclei count vs DMSO), 5 days (fraction); higher = more cells survive
LCLC-97TM1 = test system: LCLC-97TM1
Procedure, shortened: (§1)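 Five library-drug doses in √10 steps were combined with a fixed anchor-drug dose, or a single drug was given alone, by pin tool to lung cancer cell lines in 1536-well plates the day after seeding. Nuclei were stained and counted after 5 days. Relative viability is the nuclei count in treated wells over that in vehicle wells, taken as the median of duplicate plates.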

BEN = test system: BEN
Procedure, shortened: as §1

EPLC-272H = test system: EPLC-272H
Procedure, shortened: as §1

HCC-78 = test system: HCC-78
Procedure, shortened: as §1

LU99A = test system: LU99A
Procedure, shortened: as §1

LK-2 = test system: LK-2
Procedure, shortened: as §1

NCI-H727 = test system: NCI-H727
Procedure, shortened: as §1

COR-L 105 = test system: COR-L 105
Procedure, shortened: as §1

HCC-827 = test system: HCC-827
Procedure, shortened: as §1

NCI-H2087 = test system: NCI-H2087
Procedure, shortened: as §1

NCI-H1792 = test system: NCI-H1792
Procedure, shortened: as §1

LOU-NH91 = test system: LOU-NH91
Procedure, shortened: as §1

NCI-H522 = test system: NCI-H522
Procedure, shortened: as §1

EKVX = test system: EKVX
Procedure, shortened: as §1

NCI-H2126 = test system: NCI-H2126
Procedure, shortened: as §1

SW 900 = test system: SW 900
Procedure, shortened: as §1

NCI-H358 = test system: NCI-H358
Procedure, shortened: as §1

NCI-H1650 = test system: NCI-H1650
Procedure, shortened: as §1

EMC-BAC-2 = test system: EMC-BAC-2
Procedure, shortened: as §1

SK-MES-1 = test system: SK-MES-1
Procedure, shortened: as §1

SW 1573 = test system: SW 1573
Procedure, shortened: as §1

## COCC1(CO)C(=O)C2CCN1CC2 (stereo unspecified) [PRIMA-1MET] + O=C(c1cc(Cc2n[nH]c(=O)c3ccccc23)ccc1F)N1CCN(C(=O)C2CC2)CC1 [Olaparib] (partner 8 µM)
LCLC-97TM1; first compound 0.2 µM
  relative viability: 0.45
LCLC-97TM1; first compound 0.6325 µM
  relative viability: 0.33
LCLC-97TM1; first compound 2 µM
  relative viability: 0.461
LCLC-97TM1; first compound 6.325 µM
  relative viability: 0.347
LCLC-97TM1; first compound 20 µM
  relative viability: 0.236
BEN; first compound 0.2 µM
  relative viability: 1.19
BEN; first compound 0.6325 µM
  relative viability: 1.11
BEN; first compound 6.325 µM
  relative viability: 1.12
BEN; first compound 20 µM
  relative viability: 1.07
EPLC-272H; first compound 0.2 µM
  relative viability: 0.655
EPLC-272H; first compound 0.6325 µM
  relative viability: 0.89
EPLC-272H; first compound 2 µM
  relative viability: 0.911
EPLC-272H; first compound 6.325 µM
  relative viability: 0.694
EPLC-272H; first compound 20 µM
  relative viability: 0.0737
HCC-78; first compound 0.2 µM
  relative viability: 1
HCC-78; first compound 0.6325 µM
  relative viability: 1.06
HCC-78; first compound 2 µM
  relative viability: 0.573
HCC-78; first compound 6.325 µM
  relative viability: 0.881
HCC-78; first compound 20 µM
  relative viability: 0.338
LU99A; first compound 0.2 µM
  relative viability: 0.312
LU99A; first compound 0.6325 µM
  relative viability: 0.24
LU99A; first compound 2 µM
  relative viability: 0.263
LU99A; first compound 6.325 µM
  relative viability: 0.22
LU99A; first compound 20 µM
  relative viability: 0.0441
LK-2; first compound 0.2 µM
  relative viability: 0.823
LK-2; first compound 0.6325 µM
  relative viability: 0.632
LK-2; first compound 2 µM
  relative viability: 0.513
LK-2; first compound 6.325 µM
  relative viability: 0.423
LK-2; first compound 20 µM
  relative viability: 0.0842
NCI-H727; first compound 0.2 µM
  relative viability: 0.6
NCI-H727; first compound 0.6325 µM
  relative viability: 0.676
NCI-H727; first compound 6.325 µM
  relative viability: 0.527
NCI-H727; first compound 20 µM
  relative viability: 0.47
COR-L 105; first compound 0.2 µM
  relative viability: 0.687
COR-L 105; first compound 0.6325 µM
  relative viability: 0.685
COR-L 105; first compound 2 µM
  relative viability: 0.713
COR-L 105; first compound 6.325 µM
  relative viability: 0.688
COR-L 105; first compound 20 µM
  relative viability: 0.458
HCC-827; first compound 0.2 µM
  relative viability: 0.675
HCC-827; first compound 0.6325 µM
  relative viability: 0.675
HCC-827; first compound 2 µM
  relative viability: 0.587
HCC-827; first compound 6.325 µM
  relative viability: 0.684
HCC-827; first compound 20 µM
  relative viability: 0.627
NCI-H2087; first compound 0.6325 µM
  relative viability: 0.589
NCI-H2087; first compound 2 µM
  relative viability: 0.749
NCI-H2087; first compound 6.325 µM
  relative viability: 0.649
NCI-H2087; first compound 20 µM
  relative viability: 0.241
NCI-H1792; first compound 0.2 µM
  relative viability: 0.899
NCI-H1792; first compound 6.325 µM
  relative viability: 0.444
NCI-H1792; first compound 20 µM
  relative viability: 0.457
LOU-NH91; first compound 0.2 µM
  relative viability: 1.02
LOU-NH91; first compound 0.6325 µM
  relative viability: 0.911
LOU-NH91; first compound 2 µM
  relative viability: 0.866
LOU-NH91; first compound 6.325 µM
  relative viability: 0.978
LOU-NH91; first compound 20 µM
  relative viability: 0.65
NCI-H522; first compound 0.2 µM
  relative viability: 0.656
NCI-H522; first compound 0.6325 µM
  relative viability: 0.599
NCI-H522; first compound 2 µM
  relative viability: 0.625
NCI-H522; first compound 6.325 µM
  relative viability: 0.604
NCI-H522; first compound 20 µM
  relative viability: 0.0709
EKVX; first compound 0.2 µM
  relative viability: 1.01
EKVX; first compound 2 µM
  relative viability: 0.694
EKVX; first compound 6.325 µM
  relative viability: 0.825
EKVX; first compound 20 µM
  relative viability: 0.403
NCI-H2126; first compound 0.2 µM
  relative viability: 0.908
NCI-H2126; first compound 0.6325 µM
  relative viability: 0.861
NCI-H2126; first compound 2 µM
  relative viability: 0.854
NCI-H2126; first compound 6.325 µM
  relative viability: 0.972
NCI-H2126; first compound 20 µM
  relative viability: 0.831
SW 900; first compound 0.2 µM
  relative viability: 1.06
SW 900; first compound 0.6325 µM
  relative viability: 0.888
SW 900; first compound 6.325 µM
  relative viability: 0.882
SW 900; first compound 20 µM
  relative viability: 0.0786
NCI-H358; first compound 0.2 µM
  relative viability: 0.623
NCI-H358; first compound 0.6325 µM
  relative viability: 0.555
NCI-H358; first compound 2 µM
  relative viability: 0.601
NCI-H358; first compound 6.325 µM
  relative viability: 0.635
NCI-H358; first compound 20 µM
  relative viability: 0.553
NCI-H1650; first compound 0.2 µM
  relative viability: 0.75
NCI-H1650; first compound 0.6325 µM
  relative viability: 0.744
NCI-H1650; first compound 2 µM
  relative viability: 0.75
NCI-H1650; first compound 6.325 µM
  relative viability: 0.709
NCI-H1650; first compound 20 µM
  relative viability: 0.585
EMC-BAC-2; first compound 0.2 µM
  relative viability: 0.624
EMC-BAC-2; first compound 0.6325 µM
  relative viability: 0.486
EMC-BAC-2; first compound 6.325 µM
  relative viability: 0.499
EMC-BAC-2; first compound 20 µM
  relative viability: 0.43
SK-MES-1; first compound 0.2 µM
  relative viability: 0.852
SK-MES-1; first compound 0.6325 µM
  relative viability: 0.66
SK-MES-1; first compound 2 µM
  relative viability: 0.779
SK-MES-1; first compound 6.325 µM
  relative viability: 0.622
SK-MES-1; first compound 20 µM
  relative viability: 0.622
SW 1573; first compound 0.2 µM
  relative viability: 0.672
SW 1573; first compound 2 µM
  relative viability: 0.388
SW 1573; first compound 6.325 µM
  relative viability: 0.0574
SW 1573; first compound 20 µM
  relative viability: 0.0284
